This passage reports IC50 results from patent US9315520B2, “2-amino-6-methyl-4,4a,5,6-tetrahydropyrano[3,4-d][1,3]thiazin-8a(8H)-yl-1,3-thiazol-4-yl amides” (Pfizer Inc., priority 2014, dated 2016).

Counter-ions that a name gives are not always drawn.

For the assay, the target named is BACE1 (Homo sapiens (Human), UniProt P56817). The assay can be described thus: BACE1 Cell-Free Assay (fluorescence polarization). Format: biochemical. Particulars: geometric mean of 2-4 determinations unless otherwise indicated (b: ≧5; c: single determination); read-out: BACE1 Cell-free Assay IC50. For orientation: In fluorescence polarisation assays a small probe gives low polarisation when free and higher when bound to something large.
BACE1, sequence (P56817 46-457): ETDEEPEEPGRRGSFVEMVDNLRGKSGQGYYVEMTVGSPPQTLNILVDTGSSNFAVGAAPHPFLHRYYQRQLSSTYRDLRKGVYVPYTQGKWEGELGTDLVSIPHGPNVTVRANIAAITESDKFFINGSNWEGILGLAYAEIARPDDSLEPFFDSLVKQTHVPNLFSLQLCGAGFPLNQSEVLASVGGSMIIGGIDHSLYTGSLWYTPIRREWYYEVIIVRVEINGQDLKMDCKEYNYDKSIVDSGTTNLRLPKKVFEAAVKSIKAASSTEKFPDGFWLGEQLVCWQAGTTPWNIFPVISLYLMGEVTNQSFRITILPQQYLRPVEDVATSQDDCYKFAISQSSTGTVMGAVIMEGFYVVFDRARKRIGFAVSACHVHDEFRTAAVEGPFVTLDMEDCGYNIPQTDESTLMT
Turning to `C[C@H]1C[C@H]2CSC(N)=N[C@@]2(c2nc(NC(=O)c3ncnn3C)cs2)CO1` [Example 74, N-{2-[(4aR,6S,8aR)-2-amino-6-methyl-4,4a,5,6-tetrahydropyrano[3,4-d][1,3]thiazin-8a(8H)-yl]-1,3-thiazol-4-yl}-1-methyl-1H-1,2,4-triazole-5-carboxamide, trifluoroacetate salt], the IC50 was determined as 4.56 µM. The figure for `C[C@H]1C[C@H]2CSC(N)=N[C@@]2(c2nc(NC(=O)c3cn(C)cn3)cs2)CO1` [Example 75, N-{2-[(4aR,6S,8aR)-2-amino-6-methyl-4,4a,5,6-tetrahydropyrano[3,4-d][1,3]thiazin-8a(8H)-yl]-1,3-thiazol-4-yl}-1-methyl-1H-imidazole-4-carboxamide, trifluoroacetate salt] is 18.2 µM; for `C[C@H]1C[C@H]2CSC(N)=N[C@@]2(c2nc(NC(=O)c3cn(C)nn3)cs2)CO1` [Example 76, N-{2-[(4aR,6S,8aR)-2-amino-6-methyl-4,4a,5,6-tetrahydropyrano[3,4-d][1,3]thiazin-8a(8H)-yl]-1,3-thiazol-4-yl}-1-methyl-1H-1,2,3-triazole-4-carboxamide, trifluoroacetate salt] it is 28.1 µM; for `C[C@H]1C[C@H]2CSC(N)=N[C@@]2(c2nc(NC(=O)c3ccon3)cs2)CO1` [Example 77, N-{2-[(4aR,6S,8aR)-2-amino-6-methyl-4,4a,5,6-tetrahydropyrano[3,4-d][1,3]thiazin-8a(8H)-yl]-1,3-thiazol-4-yl}-1,2-oxazole-3-carboxamide, trifluoroacetate salt] it is 0.777 µM. To `C[C@H]1C[C@H]2CSC(N)=N[C@@]2(c2nc(NC(=O)C3CC(F)(F)C3)cs2)CO1` [Example 78, N-{2-[(4aR,6S,8aR)-2-amino-6-methyl-4,4a,5,6-tetrahydropyrano[3,4-d][1,3]thiazin-8a(8H)-yl]-1,3-thiazol-4-yl}-3,3-difluorocyclobutanecarboxamide, trifluoroacetate salt] belongs 1.49 µM.

On to `C[C@H]1C[C@H]2CSC(N)=N[C@@]2(c2nc(NC(=O)c3ncccn3)cs2)CO1` [Example 79, N-{2-[(4aR,6S,8aR)-2-amino-6-methyl-4,4a,5,6-tetrahydropyrano[3,4-d][1,3]thiazin-8a(8H)-yl]-1,3-thiazol-4-yl}pyrimidine-2-carboxamide, trifluoroacetate salt], for which the IC50 was found to be 1.08 µM. Take `C[C@H]1C[C@H]2CSC(N)=N[C@@]2(c2nc(NC(=O)c3cc(Cl)n(C)n3)cs2)CO1` [Example 81, N-{2-[(4aR,6S,8aR)-2-amino-6-methyl-4,4a,5,6-tetrahydropyrano[3,4-d][1,3]thiazin-8a(8H)-yl]-1,3-thiazol-4-yl}-5-chloro-1-methyl-1H-pyrazole-3-carboxamide]: the half-maximal inhibitory concentration (IC50) was determined as 3.38 µM. Take `C[C@H]1C[C@H]2CSC(N)=N[C@@]2(c2nc(NC(=O)c3cnc(C4CC4)cn3)cs2)CO1` [Example 82, N-{2-[(4aR,6S,8aR)-2-amino-6-methyl-4,4a,5,6-tetrahydropyrano[3,4-d][1,3]thiazin-8a(8H)-yl]-1,3-thiazol-4-yl}-5-cyclopropylpyrazine-2-carboxamide, hydrochloride salt]: the IC50 was 1.08 µM. For `C[C@H]1C[C@H]2CSC(N)=N[C@@]2(c2nc(NC(=O)c3cnn(C(F)F)c3)cs2)CO1` [Example 83, N-{2-[(4aR,6S,8aR)-2-amino-6-methyl-4,4a,5,6-tetrahydropyrano[3,4-d][1,3]thiazin-8a(8H)-yl]-1,3-thiazol-4-yl}-1-(difluoromethyl)-1H-pyrazole-4-carboxamide], the IC50 was 0.671 µM. To `C[C@H]1C[C@H]2CSC(N)=N[C@@]2(c2nc(NC(=O)c3ccnn3C3CC3)cs2)CO1` [Example 85, N-{2-[(4aR,6S,8aR)-2-amino-6-methyl-4,4a,5,6-tetrahydropyrano[3,4-d][1,3]thiazin-8a(8H)-yl]-1,3-thiazol-4-yl}-1-cyclopropyl-1H-pyrazole-5-carboxamide, formate salt] belongs 4.24 µM; to `CC(C)c1nc(C(=O)Nc2csc([C@]34CO[C@@H](C)C[C@H]3CSC(N)=N4)n2)co1` [Example 86, N-{2-[(4aR,6S,8aR)-2-amino-6-methyl-4,4a,5,6-tetrahydropyrano[3,4-d][1,3]thiazin-8a(8H)-yl]-1,3-thiazol-4-yl}-2-(propan-2-yl)-1,3-oxazole-4-carboxamide], 16.2 µM. The figure for `C[C@H]1C[C@H]2CSC(N)=N[C@@]2(c2nc(NC(=O)c3ccn(CC(F)F)n3)cs2)CO1` [Example 87, N-{2-[(4aR,6S,8aR)-2-amino-6-methyl-4,4a,5,6-tetrahydropyrano[3,4-d][1,3]thiazin-8a(8H)-yl]-1,3-thiazol-4-yl}-1-(2,2-difluoroethyl)-1H-pyrazole-3-carboxamide] is 0.398 µM; for `COCCn1ccc(C(=O)Nc2csc([C@]34CO[C@@H](C)C[C@H]3CSC(N)=N4)n2)n1` [Example 88, N-{2-[(4aR,6S,8aR)-2-amino-6-methyl-4,4a,5,6-tetrahydropyrano[3,4-d][1,3]thiazin-8a(8H)-yl]-1,3-thiazol-4-yl}-1-(2-methoxyethyl)-1H-pyrazole-3-carboxamide] it is 0.418 µM.

With `C#CCn1ccc(C(=O)Nc2csc([C@]34CO[C@@H](C)C[C@H]3CSC(N)=N4)n2)n1` [Example 89, N-{2-[(4aR,6S,8aR)-2-amino-6-methyl-4,4a,5,6-tetrahydropyrano[3,4-d][1,3]thiazin-8a(8H)-yl]-1,3-thiazol-4-yl}-1-(prop-2-yn-1-yl)-1H-pyrazole-3-carboxamide], the IC50 worked out at 0.017 µM. To `COCc1nc(C(=O)Nc2csc([C@]34CO[C@@H](C)C[C@H]3CSC(N)=N4)n2)co1` [Example 90, N-{2-[(4aR,6S,8aR)-2-amino-6-methyl-4,4a,5,6-tetrahydropyrano[3,4-d][1,3]thiazin-8a(8H)-yl]-1,3-thiazol-4-yl}-2-(methoxymethyl)-1,3-oxazole-4-carboxamide] belongs 0.175 µM. The figure for `C[C@H]1C[C@H]2CSC(N)=N[C@@]2(c2nc(NC(=O)c3coc(CC(F)(F)F)n3)cs2)CO1` [Example 91, N-{2-[(4aR,6S,8aR)-2-amino-6-methyl-4,4a,5,6-tetrahydropyrano[3,4-d][1,3]thiazin-8a(8H)-yl]-1,3-thiazol-4-yl}-2-(2,2,2-trifluoroethyl)-1,3-oxazole-4-carboxamide] is 0.215 µM. Regarding `C[C@H]1C[C@H]2CSC(N)=N[C@@]2(c2nc(NC(=O)C3CCC3)cs2)CO1` [Example 93, N-{2-[(4aR,6S,8aR)-2-amino-6-methyl-4,4a,5,6-tetrahydropyrano[3,4-d][1,3]thiazin-8a(8H)-yl]-1,3-thiazol-4-yl}cyclobutanecarboxamide], the IC50 amounted to 0.376 µM.

Regarding `CC#CCOc1ccc(C(=O)Nc2csc([C@]34CO[C@@H](C)C[C@H]3CSC(N)=N4)n2)nc1` [Example 94, N-{2-[(4aR,6S,8aR)-2-amino-6-methyl-4,4a,5,6-tetrahydropyrano[3,4-d][1,3]thiazin-8a(8H)-yl]-1,3-thiazol-4-yl}-5-(but-2-yn-1-yloxy)pyridine-2-carboxamide], the 50% inhibitory concentration (IC50) was determined as 0.018 µM.

For the molecule `C[C@H]1C[C@H]2CSC(N)=N[C@@]2(c2nc(NC(=O)c3nc(C(F)F)co3)cs2)CO1` [Example 95, N-{2-[(4aR,6S,8aR)-2-amino-6-methyl-4,4a,5,6-tetrahydropyrano[3,4-d][1,3]thiazin-8a(8H)-yl]-1,3-thiazol-4-yl}-4-(difluoromethyl)-1,3-oxazole-2-carboxamide], the half-inhibitory concentration (IC50) amounted to 0.075 µM. The figure for `Cc1cn(C(F)F)nc1C(=O)Nc1csc([C@]23CO[C@@H](C)C[C@H]2CSC(N)=N3)n1` [Example 96, N-{2-[(4aR,6S,8aR)-2-amino-6-methyl-4,4a,5,6-tetrahydropyrano[3,4-d][1,3]thiazin-8a(8H)-yl]-1,3-thiazol-4-yl}-1-(difluoromethyl)-4-methyl-1H-pyrazole-3-carboxamide] is 0.002 µM; for `C[C@H]1C[C@H]2CSC(N)=N[C@@]2(c2nc(NC(=O)c3ncc(OC(F)F)cn3)cs2)CO1` [Example 97, N-{2-[(4aR,6S,8aR)-2-amino-6-methyl-4,4a,5,6-tetrahydropyrano[3,4-d][1,3]thiazin-8a(8H)-yl]-1,3-thiazol-4-yl}-5-(difluoromethoxy)pyrimidine-2-carboxamide] it is 0.177 µM.

In the case of `Cc1nc(OC(F)F)cnc1C(=O)Nc1csc([C@]23CO[C@@H](C)C[C@H]2CSC(N)=N3)n1` [Example 98, N-{2-[(4aR,6S,8aR)-2-amino-6-methyl-4,4a,5,6-tetrahydropyrano[3,4-d][1,3]thiazin-8a(8H)-yl]-1,3-thiazol-4-yl}-5-(difluoromethoxy)-3-methylpyrazine-2-carboxamide], the half-maximal inhibitory concentration (IC50) worked out at 0.033 µM. To `C[C@H]1C[C@H]2CSC(N)=N[C@@]2(c2nc(NC(=O)c3ncc(OC(F)F)cc3Cl)cs2)CO1` [Example 99, N-{2-[(4aR,6S,8aR)-2-amino-6-methyl-4,4a,5,6-tetrahydropyrano[3,4-d][1,3]thiazin-8a(8H)-yl]-1,3-thiazol-4-yl}-3-chloro-5-(difluoromethoxy)pyridine-2-carboxamide] belongs 0.025 µM; to `COCC(F)(F)c1cnc(C(=O)Nc2csc([C@]34CO[C@@H](C)C[C@H]3CSC(N)=N4)n2)cn1` [Example 100, N-{2-[(4aR,6S,8aR)-2-amino-6-methyl-4,4a,5,6-tetrahydropyrano[3,4-d][1,3]thiazin-8a(8H)-yl]-1,3-thiazol-4-yl}-5-(1,1-difluoro-2-methoxyethyl)pyrazine-2-carboxamide], 0.22 µM; to `C[C@H]1C[C@H]2CSC(N)=N[C@@]2(c2nc(NC(=O)c3ccc(OCC#N)cn3)cs2)CO1` [Example 101, N-{2-[(4aR,6S,8aR)-2-amino-6-methyl-4,4a,5,6-tetrahydropyrano[3,4-d][1,3]thiazin-8a(8H)-yl]-1,3-thiazol-4-yl}-5-(cyanomethoxy)pyridine-2-carboxamide], 0.447 µM.

For orientation: IC50 means the point on the concentration scale where inhibition reaches its midpoint.
